The test relates to MV-4-11 cells. Nature of the test: Gene expression microarray analysis (Affymetrix PrimeView) and GSEA. It is filed as cell-based, human. On the set-up: RFU PODN (11730768_x_at) / Fold change /veh PODN (11730768_x_at) / RFU LINC00158 (11744669_a_at) / Fold change /veh LINC00158 (11744669_a_at) / RFU DUSP10 (11751237_a_at) / Fold change /veh DUSP10 (11751237_a_at) / RFU ID3 (11757404_x_at) / Fold change /veh ID3 (11757404_x_at) / RFU PLEKHG5 (11737974_s_at) / Fold change /veh PLEKHG5 (11737974_s_at) / RFU LRRC4B (11730491_at) / Fold change /veh LRRC4B (11730491_at) / RFU GIMAP4 (11747438_a_at) / Fold change /veh GIMAP4 (11747438_a_at) / RFU KRT8 (11758183_x_at) / Fold change /veh KRT8 (11758183_x_at) / RFU CNN1 (11734310_a_at) / Fold change /veh CNN1 (11734310_a_at) / RFU VPS37D (11726825_at) / Fold change /veh VPS37D (11726825_at) / RFU C10orf10 (11716522_x_at) / Fold change /veh C10orf10 (11716522_x_at) / RFU KIR2DL2 /// KIR2DL4 /// KIR2DL5A /// KIR2DL5B /// KIR2DS1 /// KIR2DS2 /// KIR2DS3 /// KIR2DS4 /// KIR3DL3 /// KIR3DL3 /// KIR3DS1 (11738374_at) / Fold change /veh KIR2DL2 /// KIR2DL4 /// KIR2DL5A /// KIR2DL5B /// KIR2DS1 /// KIR2DS2 /// KIR2DS3 /// KIR2DS4 /// KIR3DL3 /// KIR3DL3 /// KIR3DS1 (11738374_at) / RFU C1QL1 (11718748_at) / Fold change /veh C1QL1 (11718748_at) / RFU TMPRSS4 (11747572_a_at) / Fold change /veh TMPRSS4 (11747572_a_at) / RFU HAMP (11756126_x_at) / Fold change /veh HAMP (11756126_x_at) / RFU RNFT2 (11725882_a_at) / Fold change /veh RNFT2 (11725882_a_at) / RFU NR4A2 (11747474_a_at) / Fold change /veh NR4A2 (11747474_a_at) / RFU ABCC12 (11746883_a_at) / Fold change /veh ABCC12 (11746883_a_at) / RFU TMEM136 (11760407_x_at) / Fold change /veh TMEM136 (11760407_x_at) / RFU CLDN22 /// WWC2 (11732394_at) / Fold change /veh CLDN22 /// WWC2 (11732394_at) / RFU HLA-DPB1 (11760878_x_at) / Fold change /veh HLA-DPB1 (11760878_x_at) / RFU SPINT1 (11716480_a_at) / Fold change /veh SPINT1 (11716480_a_at) / RFU GAP43 (11754022_s_at) / Fold change /veh GAP43 (11754022_s_at) / RFU A4GNT (11735810_at) / Fold change /veh A4GNT (11735810_at) / RFU PRB3 (11715151_x_at) / Fold change /veh PRB3 (11715151_x_at) / RFU TUBB4B (11761932_at) / Fold change /veh TUBB4B (11761932_at) / RFU CAPN14 (11732068_a_at) / Fold change /veh CAPN14 (11732068_a_at) / RFU TMCC2 (11721928_a_at) / Fold change /veh TMCC2 (11721928_a_at) / RFU IRGQ (11745062_a_at) / Fold change /veh IRGQ (11745062_a_at) / RFU FAM174B (11720279_a_at) / Fold change /veh FAM174B (11720279_a_at) / RFU TMPRSS4 (11748680_a_at) / Fold change /veh TMPRSS4 (11748680_a_at) / RFU FAM212B (11763350_a_at) / Fold change /veh FAM212B (11763350_a_at) / RFU PLEKHG5 (11743358_a_at) / Fold change /veh PLEKHG5 (11743358_a_at) / RFU ZSCAN30 (11745921_a_at) / Fold change /veh ZSCAN30 (11745921_a_at) / RFU CMKLR1 (11741424_a_at) / Fold change /veh CMKLR1 (11741424_a_at) / RFU LOC101060620 /// MAPK8IP1 (11723275_at) / Fold change /veh LOC101060620 /// MAPK8IP1 (11723275_at) / RFU SPTSSB (11747773_x_at) / Fold change /veh SPTSSB (11747773_x_at) / RFU PRSS12 (11739890_at) / Fold change /veh PRSS12 (11739890_at) / RFU BIN1 (11741810_x_at) / Fold change /veh BIN1 (11741810_x_at) / RFU WNT11 (11732464_a_at) / Fold change /veh WNT11 (11732464_a_at) / RFU C10orf10 (11716521_a_at) / Fold change /veh C10orf10 (11716521_a_at) / RFU C5orf56 (11738089_at) / Fold change /veh C5orf56 (11738089_at) / RFU CYB561 (11721691_x_at) / Fold change /veh CYB561 (11721691_x_at) / RFU ANKRD19P (11752326_a_at) / Fold change /veh ANKRD19P (11752326_a_at) / RFU OR2T12 /// OR2T33 /// OR2T8 (11738714_s_at) / Fold change /veh OR2T12 /// OR2T33 /// OR2T8 (11738714_s_at) / RFU VCAN (11748164_a_at) / Fold change /veh VCAN (11748164_a_at) / RFU JSRP1 (11732532_at) / Fold change /veh JSRP1 (11732532_at) / RFU KRTAP10-11 (11738290_x_at) / Fold change /veh KRTAP10-11 (11738290_x_at) / RFU MYO3A (11730013_a_at) / Fold change /veh MYO3A (11730013_a_at) / RFU EBF3 (11725865_a_at) / Fold change /veh EBF3 (11725865_a_at) / RFU CAMK2N1 (11719241_x_at) / Fold change /veh CAMK2N1 (11719241_x_at) / RFU C5orf56 (11738088_a_at) / Fold change /veh C5orf56 (11738088_a_at) / RFU OLFML3 (11715873_a_at) / Fold change /veh OLFML3 (11715873_a_at) / RFU LOC100653217 /// NTM (11731650_a_at) / Fold change /veh LOC100653217 /// NTM (11731650_a_at) / RFU MAPK11 (11762145_a_at) / Fold change /veh MAPK11 (11762145_a_at) / RFU FIZ1 (11724087_x_at) / Fold change /veh FIZ1 (11724087_x_at) / RFU OASL (11726364_x_at) / Fold change /veh OASL (11726364_x_at) / RFU SOX15 (11748057_x_at) / Fold change /veh SOX15 (11748057_x_at) / RFU CD79A (11719716_a_at) / Fold change /veh CD79A (11719716_a_at) / RFU HIST1H1D (11736915_at) / Fold change /veh HIST1H1D (11736915_at) / RFU CASKIN2 (11723855_a_at) / Fold change /veh CASKIN2 (11723855_a_at) / RFU LOC730098 (11760151_x_at) / Fold change /veh LOC730098 (11760151_x_at) / RFU OR4N2 (11742367_at) / Fold change /veh OR4N2 (11742367_at) / RFU PRRT2 (11749266_a_at) / Fold change /veh PRRT2 (11749266_a_at) / RFU SNX32 (11753110_a_at) / Fold change /veh SNX32 (11753110_a_at) / RFU CDHR5 (11726645_a_at) / Fold change /veh CDHR5 (11726645_a_at) / RFU RCAN1 (11760418_a_at) / Fold change /veh RCAN1 (11760418_a_at) / RFU FAM167A (11723789_a_at) / Fold change /veh FAM167A (11723789_a_at) / RFU FAM26E (11764081_at) / Fold change /veh FAM26E (11764081_at) / RFU ISYNA1 (11749810_s_at) / Fold change /veh ISYNA1 (11749810_s_at) / RFU ACY1 (11761880_at) / Fold change /veh ACY1 (11761880_at) / RFU 11764098_at / Fold change /veh 11764098_at / RFU SAMD14 (11745864_x_at) / Fold change /veh SAMD14 (11745864_x_at) / RFU NPB (11741838_a_at) / Fold change /veh NPB (11741838_a_at) / RFU TMPRSS6 (11731388_a_at) / Fold change /veh TMPRSS6 (11731388_a_at) / RFU KRTAP10-2 (11738614_at) / Fold change /veh KRTAP10-2 (11738614_at) / RFU ARHGAP8 /// PRR5-ARHGAP8 (11727945_x_at) / Fold change /veh ARHGAP8 /// PRR5-ARHGAP8 (11727945_x_at) / RFU KRTAP5-7 /// NADSYN1 (11734609_at) / Fold change /veh KRTAP5-7 /// NADSYN1 (11734609_at) / RFU RASL12 (11751679_a_at) / Fold change /veh RASL12 (11751679_a_at) / RFU CDKN2B (11736163_a_at) / Fold change /veh CDKN2B (11736163_a_at) / RFU PRF1 (11729649_at) / Fold change /veh PRF1 (11729649_at) / RFU, ZNF638 /// ZNF638-IT1 / Fold change vs veh, ZNF638 /// ZNF638-IT1 / RFU, PANK3 / Fold change vs veh, PANK3 / RFU, SH3YL1 / Fold change vs veh, SH3YL1 / RFU, ZEB2 / Fold change vs veh, ZEB2 / RFU, NRIP1 / Fold change vs veh, NRIP1 / RFU, PTTG1IP / Fold change vs veh, PTTG1IP / RFU, CAPN2 / Fold change vs veh, CAPN2 / RFU, MED14 / Fold change vs veh, MED14 / RFU, SNORA58 / Fold change vs veh, SNORA58 / RFU, C1orf63 / Fold change vs veh, C1orf63 / RFU, LRRFIP1 / Fold change vs veh, LRRFIP1 / RFU, NDUFAF7 / Fold change vs veh, NDUFAF7 / RFU, SLC12A2 / Fold change vs veh, SLC12A2 / RFU, IBTK / Fold change vs veh, IBTK / RFU, ESF1 / Fold change vs veh, ESF1 / Fold change vs veh, TMEM50B / RFU, TAOK1 / Fold change vs veh, TAOK1 / RFU, ACBD3 / Fold change vs veh, ACBD3 / RFU, TMA16 / Fold change vs veh, TMA16 / RFU, RWDD3 / Fold change vs veh, RWDD3 / RFU, BCAT1 / Fold change vs veh, BCAT1 / RFU, EDEM3 / Fold change vs veh, EDEM3 / RFU, TMEM33 / Fold change vs veh, TMEM33 / RFU, WDR75 / Fold change vs veh, WDR75 / RFU, AHCTF1 / Fold change vs veh, AHCTF1 / RFU, TFRC / Fold change vs veh, TFRC / RFU, ZDHHC17 / Fold change vs veh, ZDHHC17 / RFU, NOM1 / Fold change vs veh, NOM1 / RFU, ARL8B / Fold change vs veh, ARL8B / RFU, ZBTB11 / Fold change vs veh, ZBTB11 / RFU, TAMM41 / Fold change vs veh, TAMM41 / RFU, KIAA1704 /// LOC100996395 / Fold change vs veh, KIAA1704 /// LOC100996395 / RFU, ING1 / Fold change vs veh, ING1 / RFU, TRMT61B / Fold change vs veh, TRMT61B / RFU, FUBP3 / Fold change vs veh, FUBP3 / RFU, TP53 / Fold change vs veh, TP53 / RFU, TNKS2 / Fold change vs veh, TNKS2 / RFU, ZFP14 / Fold change vs veh, ZFP14 / RFU, ACTR2 / Fold change vs veh, ACTR2 / RFU, PPP3R1 / Fold change vs veh, PPP3R1 / RFU, PIK3R1 / Fold change vs veh, PIK3R1 / RFU, HNRNPA1 / Fold change vs veh, HNRNPA1 / RFU, RNF170 / Fold change vs veh, RNF170 / RFU, ZNF28 / Fold change vs veh, ZNF28 / RFU, RNGTT / Fold change vs veh, RNGTT / RFU, OGT / Fold change vs veh, OGT / RFU, BRD1 / Fold change vs veh, BRD1 / RFU, MARS / Fold change vs veh, MARS / RFU, ZNF655 / Fold change vs veh, ZNF655 / RFU, FAHD1 / Fold change vs veh, FAHD1 / RFU, BDP1 / Fold change vs veh, BDP1 / RFU, LRRCC1 / Fold change vs veh, LRRCC1 / RFU, ARID1A / Fold change vs veh, ARID1A / RFU, ZNF146 / Fold change vs veh, ZNF146 / RFU, ZNF330 / Fold change vs veh, ZNF330 / RFU, GPN3 / Fold change vs veh, GPN3 / RFU, C9orf123 / Fold change vs veh, C9orf123 / RFU, N4BP2L2 / Fold change vs veh, N4BP2L2 / RFU, ARFIP1 / Fold change vs veh, ARFIP1 / RFU, FAM179B / Fold change vs veh, FAM179B / RFU, BCL10 / Fold change vs veh, BCL10 / RFU, UHRF1BP1L / Fold change vs veh, UHRF1BP1L / RFU, BET1 / Fold change vs veh, BET1 / RFU, CNOT2 / Fold change vs veh, CNOT2 / RFU, ZNF268 / Fold change vs veh, ZNF268 / Fold change vs veh, ZNF507 / RFU, DGCR2 / Fold change vs veh, DGCR2 / RFU, WDSUB1 / Fold change vs veh, WDSUB1 / Fold change vs veh, HSP90B1 /// MIR3652 / RFU, ADSS / Fold change vs veh, ADSS / RFU, GK / Fold change vs veh, GK / RFU, ZNF148 / Fold change vs veh, ZNF148 / RFU, TAF9 / Fold change vs veh, TAF9 / RFU, SLC1A5 / Fold change vs veh, SLC1A5 / RFU, SLMO2 / Fold change vs veh, SLMO2 / RFU, ABCC4 / Fold change vs veh, ABCC4 / RFU, LOC101060439 /// RAP1B / Fold change vs veh, LOC101060439 /// RAP1B / RFU, RFX7 / Fold change vs veh, RFX7 / RFU, GTPBP10 / Fold change vs veh, GTPBP10 / RFU, CNEP1R1 / Fold change vs veh, CNEP1R1 / RFU, BIVM-ERCC5 /// ERCC5 / Fold change vs veh, BIVM-ERCC5 /// ERCC5 / RFU, ILF3 / Fold change vs veh, ILF3 / RFU 11762660_at / Fold change /veh 11762660_at / RFU VCAN (11757783_s_at) / Fold change /veh VCAN (11757783_s_at) / RFU DDX43 (11728927_at) / Fold change /veh DDX43 (11728927_at) / RFU KRT8 (11758188_x_at) / Fold change /veh KRT8 (11758188_x_at) / RFU NKD1 (11759106_at) / Fold change /veh NKD1 (11759106_at) / RFU SRD5A1 (11742802_a_at) / Fold change /veh SRD5A1 (11742802_a_at) / RFU TPSAB1 /// TPSB2 (11721975_s_at) / Fold change /veh TPSAB1 /// TPSB2 (11721975_s_at) / RFU GSTM3 (11746129_a_at) / Fold change /veh GSTM3 (11746129_a_at) / RFU IL23R (11737362_x_at) / Fold change /veh IL23R (11737362_x_at) / RFU TMEM51 (11727254_a_at) / Fold change /veh TMEM51 (11727254_a_at) / RFU PIWIL2 (11732686_x_at) / Fold change /veh PIWIL2 (11732686_x_at) / RFU ORM1 (11744905_x_at) / Fold change /veh ORM1 (11744905_x_at) / RFU CCDC152 (11743942_at) / Fold change /veh CCDC152 (11743942_at) / RFU ECM1 (11717891_a_at) / Fold change /veh ECM1 (11717891_a_at) / RFU IL23R (11748794_a_at) / Fold change /veh IL23R (11748794_a_at) / RFU TNFAIP8L3 (11732012_x_at) / Fold change /veh TNFAIP8L3 (11732012_x_at) / RFU MBOAT4 (11741988_at) / Fold change /veh MBOAT4 (11741988_at) / RFU 11764193_at / Fold change /veh 11764193_at / RFU TMEM53 (11763286_at) / Fold change /veh TMEM53 (11763286_at) / RFU MAGEB2 (11727129_at) / Fold change /veh MAGEB2 (11727129_at) / RFU TMEM200A (11744735_a_at) / Fold change /veh TMEM200A (11744735_a_at) / RFU CCDC152 (11751479_a_at) / Fold change /veh CCDC152 (11751479_a_at) / RFU FAM211A (11726209_a_at) / Fold change /veh FAM211A (11726209_a_at) / RFU RGS16 (11746705_a_at) / Fold change /veh RGS16 (11746705_a_at) / RFU VCAN (11755009_s_at) / Fold change /veh VCAN (11755009_s_at) / RFU RHOB (11743442_s_at) / Fold change /veh RHOB (11743442_s_at) / RFU RGS16 (11720943_a_at) / Fold change /veh RGS16 (11720943_a_at) / RFU RGS16 (11720944_at) / Fold change /veh RGS16 (11720944_at) / RFU, VPS4B / Fold change vs veh, VPS4B / RFU, CREB1 / Fold change vs veh, CREB1 / RFU, DNAJC13 / Fold change vs veh, DNAJC13 / RFU, GNAQ / Fold change vs veh, GNAQ / RFU, CDK5R1 / Fold change vs veh, CDK5R1 / RFU, ZRANB3 / Fold change vs veh, ZRANB3 / RFU, CUL4A / Fold change vs veh, CUL4A / RFU, CCNY / Fold change vs veh, CCNY / RFU, UFL1 / Fold change vs veh, UFL1 / RFU, COG3 / Fold change vs veh, COG3 / RFU, DIAPH2 / Fold change vs veh, DIAPH2 / RFU, SKA2 / Fold change vs veh, SKA2 / RFU, AFF3 / Fold change vs veh, AFF3 / RFU, LMF1 / Fold change vs veh, LMF1 / RFU, IPO11 / Fold change vs veh, IPO11 / RFU, DFFB / Fold change vs veh, DFFB / RFU, FOXP1 / Fold change vs veh, FOXP1 / RFU, CARD8 / Fold change vs veh, CARD8 / RFU, STRN3 / Fold change vs veh, STRN3 / RFU, ADK / Fold change vs veh, ADK / RFU, RASSF2 / Fold change vs veh, RASSF2 / RFU, WIPF1 / Fold change vs veh, WIPF1 / RFU, LARP1B / Fold change vs veh, LARP1B / RFU, RASA1 / Fold change vs veh, RASA1 / RFU, RB1 / Fold change vs veh, RB1 / RFU, PPFIA1 / Fold change vs veh, PPFIA1 / RFU, MAT2A / Fold change vs veh, MAT2A / RFU, CCT5 / Fold change vs veh, CCT5 / RFU, WDR92 / Fold change vs veh, WDR92 / RFU, CUX1 / Fold change vs veh, CUX1 / RFU, TTC7A / Fold change vs veh, TTC7A / RFU, TMEM135 / Fold change vs veh, TMEM135 / RFU, DEPTOR / Fold change vs veh, DEPTOR / RFU, CPM / Fold change vs veh, CPM / RFU, DNAJB6 / Fold change vs veh, DNAJB6 / RFU, CACNA2D3 / Fold change vs veh, CACNA2D3 / RFU, DTX4 / Fold change vs veh, DTX4 / RFU, TFCP2 / Fold change vs veh, TFCP2 / RFU, GMCL1 /// GMCL1P1 / Fold change vs veh, GMCL1 /// GMCL1P1 / RFU, AEBP2 / Fold change vs veh, AEBP2 / RFU, SNHG1 /// SNORD22 /// SNORD25 /// SNORD26 /// SNORD27 /// SNORD28 /// SNORD29 /// SNORD31 / Fold change vs veh, SNHG1 /// SNORD22 /// SNORD25 /// SNORD26 /// SNORD27 /// SNORD28 /// SNORD29 /// SNORD31 / Fold change (Aza/veh), C12orf56 (ProbeSet 11735607_a_at) / Fold change (ACY-1035/veh), C12orf56 (ProbeSet 11735607_a_at) / Fold change (Aza/veh), FGFR1OP (ProbeSet 11751329_s_at) / Fold change (ACY-1035/veh), FGFR1OP (ProbeSet 11751329_s_at) / Fold change (Aza/veh), VPS36 (ProbeSet 11739960_a_at) / Fold change (ACY-1035/veh), VPS36 (ProbeSet 11739960_a_at) / RFU SYPL1 (11715823_x_at) / Fold change /veh SYPL1 (11715823_x_at) / RFU IGFBP7 (11715501_s_at) / Fold change /veh IGFBP7 (11715501_s_at) / RFU REEP3 (11722064_at) / Fold change /veh REEP3 (11722064_at) / RFU IGLL1 (11728026_x_at) / Fold change /veh IGLL1 (11728026_x_at): dose or concentration left out as unconfirmed. The conditions noted are these: ProbeSet 11716844_s_at; LIST D.

The record followed here is publication PMC5218480 (PLoS ONE, 2017).

Turning to `Nc1ccc(-c2cccs2)cc1NC(=O)c1ccc2c(c1)cc(C1CC1)n2CCN1CCOCC1` [ACY-1035], the “Fold change vs veh, DNAJC13” value was 0.91.
